Laboratory results published in the NIST ThermoML archive (doi:10.1016/j.jct.2013.08.021).

Assays:
[1] = xn = mol fraction of the nth substance listed; conditions: 101 kPa, Liquid; for speed of sound: Sing-around technique in a fixed-path interferometer; for mass density: Vibrating tube method
[2] = refractive index (Na D-line) (dimensionless); xn = mol fraction of the nth substance listed; conditions: 101 kPa, Liquid, Standard Abbe refractometry
[3] = for viscosity / speed of sound / mass density: 101 kPa, Liquid; for viscosity: Capillary tube (Ostwald / Ubbelohde) method; for speed of sound: Sing-around technique in a fixed-path interferometer; for mass density: Vibrating tube method

CCC[N+]1(C)CCCC1.O=S(=O)([N-]S(=O)(=O)C(F)(F)F)C(F)(F)F + CCCO
Conditions	mass density, 298.15 K [kg/m3]	mass density, 303.15 K [kg/m3]	mass density, 308.15 K [kg/m3]	refractive index, 298.15 K	refractive index, 303.15 K	refractive index, 308.15 K	speed of sound, 298.15 K [m/s]	speed of sound, 303.15 K [m/s]	speed of sound, 308.15 K [m/s]
[1], x2 = 0	1427.86	1423.26	1418.83	–	–	–	1270.6	1259.5	1248.6
[1], x2 = 0.0938	1411.16	1406.64	1402.12	–	–	–	1265.5	1254.3	1243.4
[1], x2 = 0.1942	1390.36	1385.82	1381.28	–	–	–	1259.2	1248	1236.8
[1], x2 = 0.3092	1361.8	1357.24	1352.68	–	–	–	1250.8	1239.4	1228.1
[1], x2 = 0.3925	1336.96	1332.37	1327.8	–	–	–	1243.8	1232.2	1220.8
[1], x2 = 0.5031	1296.59	1291.99	1287.39	–	–	–	1233	1221.2	1209.4
[1], x2 = 0.6035	1249.57	1244.97	1240.35	–	–	–	1221.4	1209.3	1197.2
[1], x2 = 0.6084	1246.93	1242.32	1237.71	–	–	–	1220.8	1208.7	1196.6
[1], x2 = 0.6973	1192.26	1187.68	1183.08	–	–	–	1209.2	1196.7	1184.2
[1], x2 = 0.8048	1102.79	1098.29	1093.76	–	–	–	1194.6	1181.5	1168.3
[1], x2 = 0.8994	988.76	984.42	980.03	–	–	–	1187.7	1173.4	1159.1
[1], x2 = 0.9465	912.36	908.13	903.87	–	–	–	1192	1176.5	1161.2
[2], x2 = 0	–	–	–	1.42064	1.41926	1.41782	–	–	–
[2], x2 = 0.0938	–	–	–	1.41963	1.41825	1.41678	–	–	–
[2], x2 = 0.1942	–	–	–	1.41841	1.41693	1.4155	–	–	–
[2], x2 = 0.3092	–	–	–	1.41669	1.41521	1.41375	–	–	–
[2], x2 = 0.3925	–	–	–	1.41523	1.41377	1.41227	–	–	–
[2], x2 = 0.5031	–	–	–	1.41287	1.41135	1.40984	–	–	–
[2], x2 = 0.6035	–	–	–	1.41013	1.40858	1.40703	–	–	–
[2], x2 = 0.6084	–	–	–	1.40996	1.40837	1.40681	–	–	–
[2], x2 = 0.6973	–	–	–	1.40685	1.40519	1.40364	–	–	–
[2], x2 = 0.8048	–	–	–	1.40163	1.40019	1.39885	–	–	–
[2], x2 = 0.8994	–	–	–	1.39494	1.39356	1.39205	–	–	–
[2], x2 = 0.9465	–	–	–	1.39023	1.38843	1.38653	–	–	–

CCC[N+]1(C)CCCC1.O=S(=O)([N-]S(=O)(=O)C(F)(F)F)C(F)(F)F + CO
Conditions	mass density, 298.15 K [kg/m3]	mass density, 303.15 K [kg/m3]	mass density, 308.15 K [kg/m3]	refractive index, 298.15 K	refractive index, 303.15 K	refractive index, 308.15 K	speed of sound, 298.15 K [m/s]	speed of sound, 303.15 K [m/s]	speed of sound, 308.15 K [m/s]
[1], x2 = 0	1427.86	1423.26	1418.83	–	–	–	1270.6	1259.5	1248.6
[1], x2 = 0.0462	1423.37	1418.86	1414.35	–	–	–	1268.8	1257.7	1246.8
[1], x2 = 0.0901	1418.77	1414.23	1409.69	–	–	–	1266.9	1255.8	1244.9
[1], x2 = 0.1769	1408.88	1404.34	1399.8	–	–	–	1262.7	1251.6	1240.6
[1], x2 = 0.2722	1396.02	1391.43	1386.85	–	–	–	1257.1	1246	1234.9
[1], x2 = 0.3855	1376.42	1371.67	1367.04	–	–	–	1248.7	1237.4	1226.2
[1], x2 = 0.568	1329.02	1324.31	1319.61	–	–	–	1228.6	1217	1205.7
[1], x2 = 0.685	1279.72	1274.95	1270.18	–	–	–	1208.5	1196.8	1185.2
[1], x2 = 0.798	1201.72	1196.89	1192.05	–	–	–	1180.4	1168.2	1156.1
[1], x2 = 0.8984	1075.97	1071.1	1066.22	–	–	–	1144.6	1131.4	1118.3
[1], x2 = 0.9467	973.15	968.3	963.44	–	–	–	1124.5	1110.3	1096.2
[2], x2 = 0	–	–	–	1.42064	1.41926	1.41782	–	–	–
[2], x2 = 0.0462	–	–	–	1.42002	1.41862	1.41719	–	–	–
[2], x2 = 0.0901	–	–	–	1.41937	1.41801	1.41659	–	–	–
[2], x2 = 0.1769	–	–	–	1.41794	1.41675	1.41551	–	–	–
[2], x2 = 0.2722	–	–	–	1.41609	1.41503	1.4136	–	–	–
[2], x2 = 0.3855	–	–	–	1.41327	1.41206	1.41063	–	–	–
[2], x2 = 0.568	–	–	–	1.40659	1.4055	1.404	–	–	–
[2], x2 = 0.685	–	–	–	1.39953	1.39832	1.39695	–	–	–
[2], x2 = 0.798	–	–	–	1.38838	1.38703	1.38569	–	–	–
[2], x2 = 0.8984	–	–	–	1.37031	1.36877	1.36712	–	–	–
[2], x2 = 0.9467	–	–	–	1.35498	1.35335	1.35185	–	–	–

CCC[N+]1(C)CCCC1.O=S(=O)([N-]S(=O)(=O)C(F)(F)F)C(F)(F)F + CCO
Conditions	mass density, 298.15 K [kg/m3]	mass density, 303.15 K [kg/m3]	mass density, 308.15 K [kg/m3]	refractive index, 298.15 K	refractive index, 303.15 K	refractive index, 308.15 K	speed of sound, 298.15 K [m/s]	speed of sound, 303.15 K [m/s]	speed of sound, 308.15 K [m/s]
[1], x2 = 0	1427.86	1423.26	1418.83	–	–	–	1270.6	1259.5	1248.6
[1], x2 = 0.016	1425.68	1421.16	1416.65	–	–	–	1269.2	1258.2	1247.2
[1], x2 = 0.0703	1418.06	1413.56	1409.05	–	–	–	1266.3	1255.2	1244.3
[1], x2 = 0.0986	1413.89	1409.36	1404.83	–	–	–	1264.6	1253	1242.6
[1], x2 = 0.2816	1380.66	1376.07	1371.48	–	–	–	1252.4	1241.1	1229.9
[1], x2 = 0.4082	1349.44	1344.8	1340.16	–	–	–	1241	1229.5	1218.2
[1], x2 = 0.5143	1315.09	1310.32	1305.65	–	–	–	1228.8	1217.2	1205.7
[1], x2 = 0.6077	1275.55	1270.84	1266.14	–	–	–	1215.8	1203.9	1192.1
[1], x2 = 0.7059	1219.23	1214.5	1209.77	–	–	–	1198.4	1186.2	1174
[1], x2 = 0.8034	1138.92	1134.21	1129.48	–	–	–	1177.6	1164.7	1151.9
[1], x2 = 0.9002	1015	1010.37	1005.72	–	–	–	1155	1140.9	1127
[1], x2 = 0.9468	927.02	922.49	917.93	–	–	–	1146.8	1131.8	1117
[2], x2 = 0	–	–	–	1.42064	1.41926	1.41782	–	–	–
[2], x2 = 0.016	–	–	–	1.42045	1.41907	1.41766	–	–	–
[2], x2 = 0.0703	–	–	–	1.41973	1.41834	1.4169	–	–	–
[2], x2 = 0.0986	–	–	–	1.41935	1.41789	1.41649	–	–	–
[2], x2 = 0.2816	–	–	–	1.41621	1.41485	1.41339	–	–	–
[2], x2 = 0.4082	–	–	–	1.41338	1.412	1.41052	–	–	–
[2], x2 = 0.5143	–	–	–	1.41021	1.40877	1.40732	–	–	–
[2], x2 = 0.6077	–	–	–	1.40661	1.40521	1.40398	–	–	–
[2], x2 = 0.7059	–	–	–	1.40144	1.39995	1.39878	–	–	–
[2], x2 = 0.8034	–	–	–	1.39395	1.39236	1.39104	–	–	–
[2], x2 = 0.9002	–	–	–	1.38228	1.38064	1.37888	–	–	–
[2], x2 = 0.9468	–	–	–	1.37383	1.372	1.37027	–	–	–

CCC[N+]1(C)CCCC1.O=S(=O)([N-]S(=O)(=O)C(F)(F)F)C(F)(F)F
[3]
Conditions	mass density [kg/m3]	speed of sound [m/s]	viscosity [mPa·s]
293.15 K	1432.42	1281.9	66.61
298.15 K	1427.86	1270.6	49.35
303.15 K	1423.37	1259	38.52
308.15 K	1418.86	1249.1	30.93
313.15 K	1414.37	1238.2	26.17
318.15 K	1409.9	1227.4	22.39
323.15 K	1405.45	1216.9	19.31
328.15 K	1401.01	1205.9	17.13
333.15 K	1396.59	1196.4	15.07
338.15 K	1392.17	1186.3	13.36
343.15 K	1387.77	1176.2	11.93

Conditions	Normal melting temperature [°C]
[3], Crystal, DTA	11.00
